Results reported in ChEMBL document CHEMBL4024779, “Novel Terminal Bipheny-Based Diapophytoene Desaturases (CrtN) Inhibitors as Anti-MRSA/VISR/LRSA Agents with Reduced hERG Activity” (J Med Chem, 2018).
Values after ≈ are worked out from the molar mass of the structure shown.

Key:
[1] = biological target: T1, 4,4'-diapophytoene desaturase (4,4'-diaponeurosporene-forming) (Staphylococcus aureus (strain Newman), UniProt O07855); assay: Inhibition of CrtN in Staphylococcus aureus Newman assessed as reduction in staphyloxanthin levels after 48 hrs by spectrophotometric method-based pigment inhibition assay; design: species or system Staphylococcus aureus subsp. aureus str. Newman
T1 sequence (O07855 whole entry): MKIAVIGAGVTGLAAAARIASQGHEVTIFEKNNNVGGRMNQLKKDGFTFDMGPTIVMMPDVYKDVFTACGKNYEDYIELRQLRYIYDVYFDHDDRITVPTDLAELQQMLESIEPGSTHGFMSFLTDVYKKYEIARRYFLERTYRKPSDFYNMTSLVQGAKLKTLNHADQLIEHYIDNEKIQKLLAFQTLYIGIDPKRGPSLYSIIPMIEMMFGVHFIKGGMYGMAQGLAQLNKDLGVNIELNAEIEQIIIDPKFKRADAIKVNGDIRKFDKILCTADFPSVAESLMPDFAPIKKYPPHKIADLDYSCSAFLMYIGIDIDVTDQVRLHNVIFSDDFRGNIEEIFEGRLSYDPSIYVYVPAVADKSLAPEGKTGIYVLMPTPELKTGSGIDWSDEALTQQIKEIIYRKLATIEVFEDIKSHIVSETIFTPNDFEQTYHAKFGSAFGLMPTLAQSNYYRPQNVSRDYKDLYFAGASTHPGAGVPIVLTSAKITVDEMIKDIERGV

[2] = system: Trichophyton rubrum; assay: In vitro antifungal activity against Trichophyton rubrum after 7 days by serial dilution method; type: functional; settings: 168 h
[3] = system: Trichophyton mentagrophytes; assay: In vitro antifungal activity against Trichophyton mentagrophytes after 7 days by serial dilution method; type: functional; settings: 168 h
[4] = system: Nannizzia gypsea; assay: In vitro antifungal activity against Microsporum gypseum after 7 days by serial dilution method; type: functional; settings: 168 h
[5] = system: Trichophyton verrucosum; assay: In vitro antifungal activity against Trichophyton verrucosum after 7 days by serial dilution method; type: functional; settings: 168 h
[6] = system: HepG2; assay: Cytotoxicity against human HepG2 cells after 43 hrs by Alamar blue dye-based fluorescence assay; type: cell-based; settings: HepG2, 43 h
[7] = Cytotoxicity against HEK293 cells after 43 hrs by Alamar blue dye-based fluorescence assay; type: cell-based; settings: human

| Compound | IC50 [1] [nM] | further results |
| --- | --- | --- |
| CN(CC#Cc1ccc(-c2ccccc2)cc1)Cc1coc2ccccc12 | > 1000 | – |
| CN(C/C=C/c1ccc(Cl)cc1)Cc1cccc2cc[nH]c12 | 143 | – |
| COc1ccc(/C=C/CN(C)Cc2coc3ccccc23)cc1F | > 1000 | – |
| CN(C/C=C/c1ccc(C(F)(F)F)cc1)Cc1cccc2cc[nH]c12 | 50.2 | – |
| CN(C/C=C/c1ccccc1F)Cc1cccc2cc[nH]c12 | > 1000 | – |
| CN(C/C=C/c1cccc(Cl)c1)Cc1cccc2cc[nH]c12 | > 1000 | – |
| CN(C/C=C/c1ccc(Br)cc1)Cc1cccc2cc[nH]c12 | 83.8 | – |
| CN(C/C=C/c1ccc(C(F)(F)F)cc1F)Cc1cccc2cc[nH]c12 | 48.4 | – |
| COc1ccc(/C=C/CN(C)Cc2coc3ccccc23)c(F)c1 | > 1000 | – |
| CN(C/C=C/c1cccc(C(F)(F)F)c1)Cc1coc2ccccc12 | > 1000 | – |
| CN(C/C=C/c1ccc(C#N)cc1)Cc1cccc2cc[nH]c12 | 785 | – |
| CN(C/C=C/c1ccco1)Cc1coc2ccccc12 | > 1000 | – |
| Cc1ccc(/C=C/CN(C)Cc2cccc3cc[nH]c23)cc1 | 199 | – |
| CN(C/C=C/c1ccccc1[N+](=O)[O-])Cc1coc2ccccc12 | 74.1 | – |
| CN(CC#Cc1ccc(-c2ccccc2)cc1)Cc1cccc2cc[nH]c12 | 102 | – |
| CN(C/C=C/c1ccc(C(F)(F)F)cc1)Cc1cc2ccccc2[nH]1 | > 1000 | – |
| OC(Cn1cncn1)(Cn1cncn1)c1ccc(F)cc1F [FLUCONAZOLE] | – | MIC80 [2]: 1 µg/mL (≈ 3.27 µM); MIC80 [3]: 2 µg/mL (≈ 6.53 µM); MIC80 [4]: 8 µg/mL (≈ 26.1 µM); MIC80 [5]: 2 µg/mL (≈ 6.53 µM) |
| CN(C/C=C/C1CCCCC1)Cc1cccc2cc[nH]c12 | > 1000 | – |
| CN(C/C=C/c1ccc(Br)cc1)Cc1coc2ccccc12 | 2.5 | IC50 [6]: 33000 nM; CC50 at 43 h [7]: 41900 nM |
| C[C@@H]1[C@H](O)[C@@H](C)/C=C/C=C/C=C/C=C/C=C/C=C/C=C/[C@H](O[C@@H]2O[C@H](C)[C@@H](O)[C@H](N)[C@@H]2O)C[C@@H]2O[C@](O)(C[C@@H](O)C[C@@H](O)[C@H](O)CC[C@@H](O)C[C@@H](O)CC(=O)O[C@H]1C)C[C@H](O)[C@H]2C(=O)O [AMPHOTERICIN B] | – | IC50 [6]: 3100 nM; CC50 at 43 h [7]: 4200 nM |
| CN(C/C=C/c1ccccc1C(F)(F)F)Cc1coc2ccccc12 | > 1000 | – |
| CN(C/C=C/c1ccc(Cl)cc1)Cc1coc2ccccc12 | 4.9 | IC50 [6]: 60200 nM; CC50 at 43 h [7]: 42100 nM |
| CN(C/C=C/c1ccc(C(F)F)cc1)Cc1cccc2cc[nH]c12 | 43.5 | – |
| CN(C/C=C/c1cccc2ccccc12)Cc1coc2ccccc12 | > 1000 | – |
| CN(C/C=C/c1ccccc1)Cc1coc2ccccc12 | > 1000 | – |

| Compound | IC50 [1] [nM] | further results |
| --- | --- | --- |
| CCN(C/C=C/c1ccc(C(F)(F)F)cc1)CC1=COC2C=CC=CC12 (stereo not drawn) | > 1000 | – |
| CC(C)N(C/C=C/c1ccc(C(F)(F)F)cc1)CC1=COC2C=CC=CC12 (stereo not drawn) | > 1000 | – |
| CN(C/C=C/c1ccc([N+](=O)[O-])cc1)Cc1cccc2cc[nH]c12 | > 1000 | – |
| CN(C/C=C/c1cccc([N+](=O)[O-])c1)Cc1cccc2cc[nH]c12 | > 1000 | – |
| CN(C/C=C/c1ccccc1Cl)Cc1coc2ccccc12 | 360 | – |
| CN(C/C=C/c1ccc(F)cc1)Cc1cccc2cc[nH]c12 | > 1000 | – |
| CN(C/C=C/c1ccc([N+](=O)[O-])cc1)Cc1coc2ccccc12 | 9.5 | – |
| CN(C/C=C/c1cccc2ccccc12)Cc1cccc2cc[nH]c12 | > 1000 | – |
| Cc1cccc(/C=C/CN(C)Cc2coc3ccccc23)c1 | > 1000 | – |
| Cc1cccc(/C=C/CN(C)Cc2cccc3cc[nH]c23)c1 | > 1000 | – |
| Cc1ccccc1/C=C/CN(C)Cc1coc2ccccc12 | 86.4 | – |
| CN(C/C=C/c1cccs1)Cc1coc2ccccc12 | > 1000 | – |
| CN(C/C=C/C1CCCC1)Cc1coc2ccccc12 | 397 | – |
| CN(C/C=C/c1ccccc1C(F)(F)F)Cc1cccc2cc[nH]c12 | > 1000 | – |
| CN(C/C=C/c1cccc(F)c1)Cc1coc2ccccc12 | > 1000 | – |
| Cc1ccccc1/C=C/CN(C)Cc1cccc2cc[nH]c12 | > 1000 | – |
| Cc1ccc(/C=C/CN(C)Cc2coc3ccccc23)cc1 | 9.9 | – |
| COC(=O)c1ccc(/C=C/CN(C)Cc2cccc3cc[nH]c23)cc1 | 87.8 | – |
| COc1cccc(/C=C/CN(C)Cc2cccc3cc[nH]c23)c1 | > 1000 | – |
| CCN(C/C=C/c1ccc(C(F)(F)F)cc1)Cc1cccc2cc[nH]c12 | 118 | – |
| C[C@@H](c1ncncc1F)[C@](O)(Cn1cncn1)c1ccc(F)cc1F [VORICONAZOLE] | – | MIC80 [2]: 0.0312 µg/mL (≈ 0.0895 µM); MIC80 [3]: 0.0312 µg/mL (≈ 0.0895 µM); MIC80 [4]: 0.25 µg/mL (≈ 0.716 µM); MIC80 [5]: 0.0312 µg/mL (≈ 0.0895 µM) |
| CN(C/C=C/c1ccc(C(F)F)cc1)Cc1coc2ccccc12 | 6.4 | – |
| CN(C/C=C/c1ccc2ccccc2c1)Cc1coc2ccccc12 | 6.4 | – |
| CN(C/C=C/c1ccc(C#N)cc1)Cc1coc2ccccc12 | 80.1 | – |
| CN(CC/C=C/c1ccc(-c2ccccc2)cc1)Cc1coc2ccccc12 | > 1000 | – |

| Compound | IC50 [1] [nM] | further results |
| --- | --- | --- |
| CN(C/C=C/c1ccc(C(F)(F)F)c(F)c1)Cc1cccc2cc[nH]c12 | > 1000 | – |
| CN(C/C=C/C1CCCCC1)Cc1coc2ccccc12 | > 1000 | – |
| COC(=O)c1ccc(/C=C/CN(C)Cc2coc3ccccc23)cc1 | 9.5 | – |
| FC(F)(F)c1ccc(/C=C/CNCc2cccc3cc[nH]c23)cc1 | > 1000 | – |
| COc1ccccc1/C=C/CN(C)Cc1cccc2cc[nH]c12 | > 1000 | – |
| CN(C/C=C/c1ccc(C(F)(F)F)cc1)Cc1csc2ccccc12 | > 1000 | – |
| CN(C/C=C/C1CCCC1)Cc1cccc2cc[nH]c12 | > 1000 | – |
| CN(CCCc1ccc(-c2ccccc2)cc1)Cc1cccc2cc[nH]c12 | > 1000 | – |
| CN(C/C=C/c1cccc(Cl)c1)Cc1coc2ccccc12 | > 1000 | – |
| CCOc1ccc(/C=C/CN(C)Cc2cccc3cc[nH]c23)cc1 | 64.8 | – |
| C/C(=C\c1ccc(-c2ccccc2)cc1)CN(C)Cc1coc2ccccc12 | > 1000 | – |
| CN(C/C=C/c1ccccc1F)Cc1coc2ccccc12 | > 1000 | – |
| CN(C/C=C/c1cccc(C(F)(F)F)c1)Cc1cccc2cc[nH]c12 | > 1000 | – |
| FC(F)(F)c1ccc(/C=C/CNCC2=COC3C=CC=CC23)cc1 (stereo not drawn) | > 1000 | – |
| CN(C/C=C/c1ccc(C(F)(F)F)cc1)Cc1cc2ccccc2s1 | 102 | – |
| CN(C/C=C/c1ccc(C(F)(F)F)cc1)Cc1cccc2[nH]ccc12 | 89.6 | – |
| CN(C/C=C/c1ccccc1)Cc1cccc2cc[nH]c12 | > 1000 | – |
| COc1ccc(/C=C/CN(C)Cc2cccc3cc[nH]c23)cc1F | > 1000 | – |
| CC(=O)N1CCN(c2ccc(OCC3COC(Cn4ccnc4)(c4ccc(Cl)cc4Cl)O3)cc2)CC1 (stereo not drawn) [KETOCONAZOLE] | – | MIC80 [2]: 0.5 µg/mL (≈ 0.941 µM); MIC80 [3]: 0.0625 µg/mL (≈ 0.118 µM); MIC80 [4]: 2 µg/mL (≈ 3.76 µM); MIC80 [5]: 0.0625 µg/mL (≈ 0.118 µM) |
| CN(C/C=C/c1cccs1)Cc1cccc2cc[nH]c12 | > 1000 | – |
| COc1ccc(/C=C/CN(C)Cc2cccc3cc[nH]c23)cc1 | 167 | – |
| CN(C/C=C/c1ccc(C(F)(F)F)cc1F)Cc1coc2ccccc12 | 9.2 | – |
| CN(C/C=C/c1ccc(C(F)(F)F)cc1)Cc1ccc2[nH]ccc2c1 | 62.8 | – |
| CN(C/C=C/c1cccc(F)c1)Cc1cccc2cc[nH]c12 | > 1000 | – |
| CN(C/C=C/c1ccccc1[N+](=O)[O-])Cc1cccc2cc[nH]c12 | > 1000 | – |

| Compound | IC50 [1] [nM] | further results |
| --- | --- | --- |
| CC(C)N(C/C=C/c1ccc(C(F)(F)F)cc1)Cc1cccc2cc[nH]c12 | > 1000 | – |
| CN(C/C=C/c1ccc(C(F)(F)F)cc1)Cc1c[nH]c2ccccc12 | > 1000 | – |
| C/C(=C\c1ccc(-c2ccccc2)cc1)CN(C)Cc1cccc2cc[nH]c12 | > 1000 | – |
| COc1ccccc1/C=C/CN(C)Cc1coc2ccccc12 | > 1000 | – |
| CN(C/C=C/c1ccc(F)cc1)Cc1coc2ccccc12 | 74.1 | – |
| CCOc1ccc(/C=C/CN(C)Cc2coc3ccccc23)cc1 | > 1000 | – |
| CN(C/C=C/c1ccc2ccccc2c1)Cc1cccc2cc[nH]c12 | 132 | – |
| CN(C/C=C/c1ccc(C(F)(F)F)cc1)Cc1ccc2cc[nH]c2c1 | 64.3 | – |
| CN(C/C=C/c1ccc(C(F)(F)F)cc1)Cc1cc2ccccc2o1 | 73.2 | – |
| COc1cccc(/C=C/CN(C)Cc2coc3ccccc23)c1 | > 1000 | – |
| CN(C/C=C/c1ccc(Cl)cc1Cl)Cc1cccc2cc[nH]c12 | 280 | – |
| CN(C/C=C/c1ccc(C(F)(F)F)cc1)Cc1coc2ccccc12 | 9.8 | – |
| CN(C/C=C/c1ccco1)Cc1cccc2cc[nH]c12 | > 1000 | – |
| CN(C/C=C/c1ccc(Cl)cc1Cl)Cc1coc2ccccc12 | 6.2 | – |
| CN(C/C=C/c1ccc(C(C)(C)C)cc1)Cc1coc2ccccc12 | > 1000 | – |
| C/C=C/CN(C)Cc1cccc2cc[nH]c12 | > 1000 | – |
| CN(C/C=C/c1cccc([N+](=O)[O-])c1)Cc1coc2ccccc12 | > 1000 | – |
| C/C=C/CN(C)Cc1coc2ccccc12 | 91.3 | – |
| COc1ccc(/C=C/CN(C)Cc2cccc3cc[nH]c23)c(F)c1 | 73.1 | – |
| CN(C/C=C/C=C/c1ccc(-c2ccccc2)cc1)Cc1coc2ccccc12 | > 1000 | – |
| CN(C/C=C/c1ccccc1Cl)Cc1cccc2cc[nH]c12 | > 1000 | – |
| CN(C/C=C/c1ccc(C(F)(F)F)c(F)c1)Cc1coc2ccccc12 | > 1000 | – |
| CN(C/C=C/c1ccc(C(C)(C)C)cc1)Cc1cccc2cc[nH]c12 | 700 | – |
| CN(CCCc1ccc(-c2ccccc2)cc1)Cc1coc2ccccc12 | > 1000 | – |
